#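 Compound exposure: 48 hours, 5 concentrations, 96-well plates. Abbreviation: GI50, concentration required for 50% inhibition of growth.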 Activity calls are given as the source filed them. Rule as the data show it: active = GI50 up to about 1.1 µM and inactive = higher.
# Assays:
# Test in all cases: NCI anticancer screen, dose series, 48 h
# NCI-H522 = system: NCI-H522
# HT-29 = system: HT-29
# OVCAR-3 = system: OVCAR-3
# NCI-H226 = system: NCI-H226
# CAKI-1 = system: CAKI-1
# HCT-15 = system: HCT-15
# KM-20L2 = system: KM-20L2
# RXF 631 = system: RXF 631
# COLO 205 = system: COLO 205
# M19-MEL = system: M19-MEL
# A498 = system: A498
# LOX IMVI = system: LOX IMVI
# SF-268 = system: SF-268
# DMS-273 = system: DMS-273
# HOP-62 = system: HOP-62
# 786-0 = system: 786-0
# SN12C = system: SN12C
# KM12 = system: KM12
# SW-620 = system: SW-620
# DMS-114 = system: DMS-114
# HOP-92 = system: HOP-92
# U-251 = system: U-251
# MOLT-4 = system: MOLT-4
# SF-539 = system: SF-539
# NCI-H23 = system: NCI-H23
# SK-MEL-5 = system: SK-MEL-5
# HL-60 = system: HL-60
# HCT-116 = system: HCT-116
# SK-OV-3 = system: SK-OV-3
# OVCAR-5 = system: OVCAR-5
# SF-295 = system: SF-295
# SNB-19 = system: SNB-19
# TK-10 = system: TK-10
# RPMI-8226 = system: RPMI-8226
# LXFL 529 = system: LXFL 529
# A549 = system: A549
# HOP-18 = system: HOP-18
# OVCAR-4 = system: OVCAR-4
# DLD-1 = system: DLD-1
# NCI-H460 = system: NCI-H460
# IGROV-1 = system: IGROV-1
# UO-31 = system: UO-31
# ACHN = system: ACHN
# CCRF-CEM = system: CCRF-CEM
# UACC-257 = system: UACC-257
# OVCAR-8 = system: OVCAR-8
# UACC-62 = system: UACC-62
# EKVX = system: EKVX
# SNB-78 = system: SNB-78
# M14 = system: M14
# K562 = system: K562
# Malme-3M = system: Malme-3M
# XF498 = system: XF498
# HCC 2998 = system: HCC 2998
# SNB-75 = system: SNB-75
# RXF 393 = system: RXF 393
# SK-MEL-2 = system: SK-MEL-2
# SK-MEL-28 = system: SK-MEL-28
# SR = system: SR
structure (smiles),measurement,setting,value
O=C(CC(=O)c1cccc2ccccc12)C(=O)Nc1ccc(Cl)cc1,GI50,NCI-H522,> 100 µM (inactive)
same,GI50,HT-29,> 100 µM (inactive)
same,GI50,OVCAR-3,> 100 µM (inactive)
same,GI50,NCI-H226,> 100 µM (inactive)
same,GI50,CAKI-1,> 100 µM (inactive)
same,GI50,HCT-15,> 100 µM
same,GI50,KM-20L2,> 100 µM (inactive)
same,GI50,RXF 631,> 100 µM (inactive)
same,GI50,COLO 205,> 100 µM (inactive)
same,GI50,M19-MEL,> 100 µM (inactive)
same,GI50,A498,> 100 µM (inactive)
same,GI50,LOX IMVI,> 100 µM (inactive)
same,GI50,SF-268,> 100 µM (inactive)
same,GI50,DMS-273,> 100 µM (inactive)
same,GI50,HOP-62,> 100 µM (inactive)
same,GI50,786-0,> 100 µM (inactive)
same,GI50,SN12C,> 100 µM (inactive)
same,GI50,KM12,> 100 µM (inactive)
same,GI50,SW-620,> 100 µM (inactive)
same,GI50,DMS-114,> 100 µM (inactive)
same,GI50,HOP-92,19.6 µM (inactive)
same,GI50,U-251,> 100 µM (inactive)
same,GI50,MOLT-4,> 100 µM (inactive)
same,GI50,SF-539,> 100 µM (inactive)
same,GI50,NCI-H23,> 100 µM (inactive)
same,GI50,SK-MEL-5,> 100 µM (inactive)
same,GI50,HL-60,> 100 µM (inactive)
same,GI50,HCT-116,> 100 µM (inactive)
same,GI50,SK-OV-3,> 100 µM (inactive)
same,GI50,OVCAR-5,> 100 µM (inactive)
same,GI50,SF-295,> 100 µM (inactive)
same,GI50,SNB-19,> 100 µM (inactive)
same,GI50,TK-10,> 100 µM (inactive)
same,GI50,RPMI-8226,> 100 µM (inactive)
same,GI50,LXFL 529,> 100 µM (inactive)
same,GI50,A549,> 100 µM (inactive)
same,GI50,HOP-18,> 100 µM (inactive)
same,GI50,OVCAR-4,> 100 µM (inactive)
same,GI50,DLD-1,> 100 µM (inactive)
same,GI50,NCI-H460,> 100 µM (inactive)
same,GI50,IGROV-1,> 100 µM (inactive)
same,GI50,UO-31,> 100 µM (inactive)
same,GI50,ACHN,> 100 µM (inactive)
same,GI50,CCRF-CEM,> 100 µM (inactive)
same,GI50,UACC-257,> 100 µM (inactive)
same,GI50,OVCAR-8,> 100 µM (inactive)
same,GI50,UACC-62,> 100 µM (inactive)
same,GI50,EKVX,> 100 µM (inactive)
same,GI50,SNB-78,> 100 µM (inactive)
same,GI50,M14,> 100 µM (inactive)
same,GI50,K562,> 100 µM (inactive)
same,GI50,Malme-3M,> 100 µM (inactive)
same,GI50,XF498,> 100 µM (inactive)
same,GI50,HCC 2998,> 100 µM (inactive)
CC1(C)OCC[C@@H]1[Si](C)(C)C,GI50,NCI-H522,15.3 µM (inactive)
same,GI50,HT-29,> 100 µM (inactive)
same,GI50,OVCAR-3,71.9 µM (inactive)
same,GI50,NCI-H226,70.1 µM (inactive)
same,GI50,HCT-15,32.4 µM
same,GI50,KM-20L2,> 100 µM (inactive)
same,GI50,RXF 631,> 100 µM (inactive)
same,GI50,COLO 205,> 100 µM (inactive)
same,GI50,M19-MEL,> 100 µM (inactive)
same,GI50,A498,30.1 µM (inactive)
same,GI50,LOX IMVI,56.9 µM (inactive)
same,GI50,SF-268,36.2 µM (inactive)
same,GI50,DMS-273,78.3 µM (inactive)
same,GI50,SNB-75,52.1 µM (inactive)
same,GI50,RXF 393,16.5 µM (inactive)
same,GI50,SK-MEL-2,> 100 µM (inactive)
same,GI50,786-0,> 100 µM (inactive)
same,GI50,SK-MEL-28,84.7 µM (inactive)
same,GI50,SN12C,> 100 µM (inactive)
same,GI50,KM12,> 100 µM (inactive)
same,GI50,SW-620,> 100 µM (inactive)
same,GI50,DMS-114,49.2 µM (inactive)
same,GI50,HOP-92,55.8 µM (inactive)
same,GI50,U-251,> 100 µM (inactive)
same,GI50,MOLT-4,33 µM (inactive)
same,GI50,SF-539,> 100 µM (inactive)
same,GI50,NCI-H23,53.6 µM (inactive)
same,GI50,SK-MEL-5,26.9 µM (inactive)
same,GI50,HCT-116,92.7 µM (inactive)
same,GI50,SK-OV-3,> 100 µM (inactive)
same,GI50,OVCAR-5,> 100 µM (inactive)
same,GI50,SF-295,90.8 µM (inactive)
same,GI50,SNB-19,> 100 µM (inactive)
same,GI50,TK-10,73.5 µM (inactive)
same,GI50,RPMI-8226,29.6 µM (inactive)
same,GI50,LXFL 529,> 100 µM (inactive)
same,GI50,A549,> 100 µM (inactive)
same,GI50,HOP-18,23.1 µM (inactive)
same,GI50,OVCAR-4,55.3 µM (inactive)
same,GI50,NCI-H460,> 100 µM (inactive)
same,GI50,IGROV-1,> 100 µM (inactive)
same,GI50,UO-31,42.9 µM (inactive)
same,GI50,ACHN,27.5 µM (inactive)
same,GI50,CCRF-CEM,26.9 µM (inactive)
same,GI50,UACC-257,> 100 µM (inactive)
same,GI50,OVCAR-8,> 100 µM (inactive)
same,GI50,UACC-62,24.5 µM (inactive)
same,GI50,EKVX,26.2 µM (inactive)
same,GI50,SNB-78,> 100 µM (inactive)
same,GI50,M14,> 100 µM (inactive)
same,GI50,K562,21.4 µM (inactive)
same,GI50,Malme-3M,> 100 µM (inactive)
same,GI50,XF498,32.8 µM (inactive)
OCc1c(-c2cccc3ccccc23)sc(-c2cccc3ccccc23)c1CO,GI50,NCI-H522,10.5 µM (inactive)
same,GI50,HT-29,15.3 µM (inactive)
same,GI50,OVCAR-3,13.4 µM (inactive)
same,GI50,NCI-H226,16.7 µM (inactive)
same,GI50,HCT-15,14.7 µM
same,GI50,KM-20L2,11.7 µM (inactive)
same,GI50,RXF 631,18.2 µM (inactive)
same,GI50,COLO 205,11.6 µM (inactive)
same,GI50,M19-MEL,15.5 µM (inactive)
same,GI50,LOX IMVI,14.6 µM (inactive)
same,GI50,SF-268,13.2 µM (inactive)
same,GI50,DMS-273,15.2 µM (inactive)
same,GI50,SNB-75,14.3 µM (inactive)
same,GI50,HOP-62,13 µM (inactive)
same,GI50,SK-MEL-2,14.6 µM (inactive)
same,GI50,SR,13.5 µM (inactive)
same,GI50,786-0,14 µM (inactive)
same,GI50,SK-MEL-28,10.4 µM (inactive)
same,GI50,SN12C,13.5 µM (inactive)
same,GI50,KM12,12.4 µM (inactive)
same,GI50,SW-620,15.6 µM (inactive)
same,GI50,DMS-114,9.1 µM (inactive)
same,GI50,HOP-92,15.1 µM (inactive)
same,GI50,U-251,12.2 µM (inactive)
same,GI50,MOLT-4,9.04 µM (inactive)
same,GI50,SF-539,15.3 µM (inactive)
same,GI50,NCI-H23,14.5 µM (inactive)
same,GI50,SK-MEL-5,11.3 µM (inactive)
same,GI50,HL-60,15.5 µM (inactive)
same,GI50,SK-OV-3,15.2 µM (inactive)
same,GI50,OVCAR-5,17 µM (inactive)
same,GI50,SF-295,14.1 µM (inactive)
same,GI50,SNB-19,12.5 µM (inactive)
same,GI50,TK-10,13.1 µM (inactive)
same,GI50,RPMI-8226,6.9 µM (inactive)
same,GI50,LXFL 529,14 µM (inactive)
same,GI50,HOP-18,13.5 µM (inactive)
same,GI50,NCI-H460,14.3 µM (inactive)
same,GI50,IGROV-1,14.1 µM (inactive)
same,GI50,UO-31,11.1 µM (inactive)
same,GI50,ACHN,12.3 µM (inactive)
same,GI50,CCRF-CEM,6.41 µM (inactive)
same,GI50,UACC-257,12.8 µM (inactive)
same,GI50,OVCAR-8,13 µM (inactive)
same,GI50,UACC-62,11.3 µM (inactive)
same,GI50,EKVX,11.3 µM (inactive)
same,GI50,SNB-78,16.2 µM (inactive)
same,GI50,M14,14.5 µM (inactive)
same,GI50,K562,6.5 µM (inactive)
same,GI50,Malme-3M,12.2 µM (inactive)
same,GI50,XF498,6.89 µM (inactive)
same,GI50,HCC 2998,18.1 µM (inactive)

# Source: ChEMBL document CHEMBL1201862, “PubChem BioAssay data set” (2004)
